The results in this text go back to patent US11053226B2, “KRAS G12C inhibitors and methods of using the same” (Amgen Inc., priority 2018, dated 2021).

Where only a bound is given, the exact number is not on record here.

Sequence of GDP-bound KRAS protein (aa 1-169), containing both G12C and C118A amino acid substitutions (P01116 other isoform, or with tags, fused parts or gaps G12C/C118A): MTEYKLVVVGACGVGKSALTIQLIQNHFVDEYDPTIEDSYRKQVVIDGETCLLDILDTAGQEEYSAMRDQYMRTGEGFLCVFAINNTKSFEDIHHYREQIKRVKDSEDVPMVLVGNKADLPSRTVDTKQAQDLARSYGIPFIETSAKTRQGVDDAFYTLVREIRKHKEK

The target of the first experiment is GDP-bound KRAS protein (aa 1-169), containing both G12C and C118A amino acid substitutions (Homo sapiens (Human), UniProt P01116, C118A/G12C). In words: Coupled Nucleotide Exchange Assay. Conditions: read-out: Coupled Exchange IC50 (5 min); 5 min compound pre-incubation. Format: biochemical. As to the method: For compounds in Table 9, the following assay conditions were employed:
Coupled Nucleotide Exchange Assay:
The assay plates were then read on a PerkinElmer EnVision Multilabel Reader, using AlphaScreen® technology, and data were analyzed using a 4-parameter logistic model to calculate IC50 values.
A word on the IC50: it is the point on the concentration scale where inhibition reaches its midpoint. `C=CC(=O)N1CC(NC(=O)Cn2c(C)c(-c3ccccc3CN(C)C)c3cc(Cl)ccc32)C1` [Example 32]: the IC50 was determined as 202 µM.
Same read-out and setting: in the case of `C=CC(=O)N1CC(N(C)C(=O)Cn2cc(I)c3cc(Br)ccc32)C1` [Example 43] it was 36.6 µM.

The experiment is the same for the next values; noted with them: read-out: Coupled Exchange IC50 (2 h); 2 h compound pre-incubation.
As to `C=CC(=O)N1CC(NC(=O)Cn2c(C3CC3)c(C(=O)N3CCOC(C)(C)C3)c3cc(Cl)cc(C)c32)C1` [Example 23], the IC50 worked out at 0.95 µM.
Still for that read-out and setting: then `C=CC(=O)N1CC(NC(=O)Cn2c(C)c(C(=O)N3CCc4c(C)cccc4C3)c3cc(Br)ccc32)C1` [Example 25], with 0.54 µM; and `C=CC(=O)N1CC(N(C)C(=O)Cn2c(C)c(C(=O)N3CCN(c4ccc(C#N)cn4)CC3)c3cc(Br)ccc32)C1` [Example 27], with 0.77 µM.
On the same count and under the same terms, then `C=CC(=O)N1CC(NC(=O)Cn2c(C)c(C(=O)N3CCc4c(ccnc4OC)C3)c3cc(Cl)ccc32)C1` [Example 28], with 0.59 µM; and `C=CC(=O)N1CC(NC(=O)Cn2c(C)c(-c3cncnc3C3CC3)c3cc(Cl)ccc32)C1` [Example 30], with 2.32 µM; and `C=CC(=O)N1CC(NC(=O)Cn2c(C)c(-c3ccccc3CN(C)C)c3cc(Cl)ccc32)C1` [Example 32], with 6.05 µM.
Still for that read-out and setting: in the case of `C=CC(=O)N1CC(N(C)C(=O)Cn2c(C)c(C(=O)N3CCc4c(cccc4OC)C3)c3cc(Cl)ccc32)C1` [Example 33] it was 0.21 µM; in that of `C=CC(=O)N1CC(NC(=O)Cn2c(C)c(C(=O)N3CCc4ccccc4C3(C)C)c3cc(Br)cc(C)c32)C1` [Example 35], 0.29 µM; in that of `C=CC(=O)N1CC(NC(=O)Cn2c(C)c(-c3ccccc3C3CC3)c3cc(Cl)ccc32)C1` [Example 36], 0.71 µM.
As for `C=CC(=O)N1CC(N(C)C(=O)Cn2c(C)c(C(=O)N3CCN(c4ccc([N+](=O)[O-])cn4)CC3)c3cc(Br)ccc32)C1` [Example 38], the IC50 was 0.76 µM.
`C=CC(=O)N1CC(NC(=O)Cn2c(C)c(C(=O)N3Cc4ccccc4CC3C)c3cc(Br)cc(C)c32)C1` (centres unmarked) [Example 39]: the IC50 turned out to be 0.33 µM.
Same read-out and setting: in the case of `C=CC(=O)N1CC(NC(=O)Cn2c(C)c(C(=O)N3CCc4c(cccc4OC)C3)c3cc(Cl)ccc32)C1` [Example 41] it was 0.37 µM; in that of `C=CC(=O)N1CC(N(C)C(=O)Cn2cc(I)c3cc(Br)ccc32)C1` [Example 43], 4.65 µM.
Still for that read-out and setting: then `C=CC(=O)N1CC(NC(=O)Cn2c(C)c(-c3ccccc3N3CCOCC3)c3cc(Cl)ccc32)C1` [Example 49], with 0.72 µM; and `C=CC(=O)N1CC(NC(=O)Cn2c(C)c(C(=O)N3CCc4c(C)cc(Br)cc4C3)c3cc(Br)ccc32)C1` [Example 51], with 0.75 µM.

The experiment is the same for the next values; noted with them: read-out: Coupled Exchange IC50 (20 h); 20 h compound pre-incubation.
As for `C=CC(=O)N1CC(NC(=O)Cn2c(C)c(C(=O)N3CCc4c(C)cccc4C3)c3cc(Br)ccc32)C1` [Example 25], the IC50 was 0.09 µM.
Same read-out and setting: in the case of `C=CC(=O)N1CC(N(C)C(=O)Cn2c(C)c(C(=O)N3CCN(c4ccc(C#N)cn4)CC3)c3cc(Br)ccc32)C1` [Example 27] it was 0.24 µM; in that of `C=CC(=O)N1CC(NC(=O)Cn2c(C)c(C(=O)N3CCc4c(ccnc4OC)C3)c3cc(Cl)ccc32)C1` [Example 28], 0.18 µM.
Still for that read-out and setting: then `C=CC(=O)N1CC(N(C)C(=O)Cn2c(C)c(C(=O)N3CCc4c(cccc4OC)C3)c3cc(Cl)ccc32)C1` [Example 33], with 0.13 µM; and `C=CC(=O)N1CC(NC(=O)Cn2c(C)c(-c3ccccc3C3CC3)c3cc(Cl)ccc32)C1` [Example 36], with 0.2 µM.
Still for that read-out and setting: then `C=CC(=O)N1CC(N(C)C(=O)Cn2c(C)c(C(=O)N3CCN(c4ccc([N+](=O)[O-])cn4)CC3)c3cc(Br)ccc32)C1` [Example 38], with 0.22 µM.
For `C=CC(=O)N1CC(NC(=O)Cn2c(C)c(C(=O)N3CCc4c(cccc4OC)C3)c3cc(Cl)ccc32)C1` [Example 41], the IC50 amounted to 0.12 µM.
Consider `C=CC(=O)N1CC(N(C)C(=O)Cn2cc(I)c3cc(Br)ccc32)C1` [Example 43], for which the IC50 came out at 0.44 µM.
For `C=CC(=O)N1CC(NC(=O)Cn2c(C)c(C(=O)N3CCc4c(C)cc(Br)cc4C3)c3cc(Br)ccc32)C1` [Example 51], the IC50 came to 0.18 µM.

For the next experiment, the system named is Phosphorylation of ERK1/2 in MIA PaCa-2 cells. Description: Phospho-ERK1/2 MSD Assay. Format: cell-based. Particulars: Homo sapiens, MIA PaCa-2, 4 h, read-out: pERK IC50 (4 h, MiaPaCa-2), 4 h compound treatment; MiaPaCa-2 cells.
Turning to `C=CC(=O)N1CC(NC(=O)Cn2c(C3CC3)c(C(=O)N3CCOC(C)(C)C3)c3cc(Cl)cc(C)c32)C1` [Example 23], the IC50 turned out to be 2.35 µM.
The same measure, in the same setting: then `C=CC(=O)N1CC(NC(=O)Cn2c(C)c(C(=O)N3CCc4c(C)cccc4C3)c3cc(Br)ccc32)C1` [Example 25], with 2.47 µM; and `C=CC(=O)N1CC(N(C)C(=O)Cn2c(C)c(C(=O)N3CCN(c4ccc(C#N)cn4)CC3)c3cc(Br)ccc32)C1` [Example 27], with 2.5 µM.
Still for that read-out and setting: then `C=CC(=O)N1CC(NC(=O)Cn2c(C)c(C(=O)N3CCc4c(ccnc4OC)C3)c3cc(Cl)ccc32)C1` [Example 28], with 2.63 µM; and `C=CC(=O)N1CC(N(C)C(=O)Cn2c(C)c(C(=O)N3CCc4c(cccc4OC)C3)c3cc(Cl)ccc32)C1` [Example 33], with 2.8 µM.
Still for that read-out and setting: in the case of `C=CC(=O)N1CC(NC(=O)Cn2c(C)c(C(=O)N3CCc4ccccc4C3(C)C)c3cc(Br)cc(C)c32)C1` [Example 35] it was 3.06 µM; in that of `C=CC(=O)N1CC(N(C)C(=O)Cn2c(C)c(C(=O)N3CCN(c4ccc([N+](=O)[O-])cn4)CC3)c3cc(Br)ccc32)C1` [Example 38], 3.33 µM.
With `C=CC(=O)N1CC(NC(=O)Cn2c(C)c(C(=O)N3Cc4ccccc4CC3C)c3cc(Br)cc(C)c32)C1` (centres unmarked) [Example 39], the IC50 was found to be 3.35 µM.
Regarding `C=CC(=O)N1CC(NC(=O)Cn2c(C)c(C(=O)N3CCc4c(cccc4OC)C3)c3cc(Cl)ccc32)C1` [Example 41], the IC50 was determined as 3.55 µM.
The same measure, in the same setting: in the case of `C=CC(=O)N1CC(NC(=O)Cn2c(C)c(C(=O)N3CCc4c(C)cc(Br)cc4C3)c3cc(Br)ccc32)C1` [Example 51] it was 4.82 µM.

Staying with this experiment, now noted: Homo sapiens, MIA PaCa-2, read-out: pERK IC50 (4 h); 4 h compound treatment; MiaPaCa-2 cells.
Turning to `C=CC(=O)N1CC(NC(=O)Cn2c(C)c(-c3cncnc3C3CC3)c3cc(Cl)ccc32)C1` [Example 30], the IC50 was determined as 2.68 µM.
Still for that read-out and setting: then `C=CC(=O)N1CC(NC(=O)Cn2c(C)c(-c3ccccc3CN(C)C)c3cc(Cl)ccc32)C1` [Example 32], with 2.73 µM; and `C=CC(=O)N1CC(NC(=O)Cn2c(C)c(-c3ccccc3C3CC3)c3cc(Cl)ccc32)C1` [Example 36], with 3.31 µM.
Still for that read-out and setting: then `C=CC(=O)N1CC(N(C)C(=O)Cn2cc(I)c3cc(Br)ccc32)C1` [Example 43], with 3.82 µM.
Still for that read-out and setting: then `C=CC(=O)N1CC(NC(=O)Cn2c(C)c(-c3ccccc3N3CCOCC3)c3cc(Cl)ccc32)C1` [Example 49], with 4.67 µM.

A further experiment concerns Phosphorylation of ERK1/2 in A549 cells. Description: Phospho-ERK1/2 MSD Assay (A549). Conditions: Homo sapiens, A549, 4 h, read-out: pERK IC50 (4 h, A549), 4 h compound treatment. Format: cell-based.
As to `C=CC(=O)N1CC(NC(=O)Cn2c(C3CC3)c(C(=O)N3CCOC(C)(C)C3)c3cc(Cl)cc(C)c32)C1` [Example 23], the IC50 was more than 100 µM.
The same measure, in the same setting: then `C=CC(=O)N1CC(NC(=O)Cn2c(C)c(C(=O)N3CCc4c(C)cccc4C3)c3cc(Br)ccc32)C1` [Example 25], with more than 100 µM.
Still for that read-out and setting: in the case of `C=CC(=O)N1CC(N(C)C(=O)Cn2c(C)c(C(=O)N3CCN(c4ccc(C#N)cn4)CC3)c3cc(Br)ccc32)C1` [Example 27] it was more than 100 µM.
Take `C=CC(=O)N1CC(NC(=O)Cn2c(C)c(C(=O)N3CCc4c(ccnc4OC)C3)c3cc(Cl)ccc32)C1` [Example 28]: the IC50 is more than 100 µM.
For the molecule `C=CC(=O)N1CC(N(C)C(=O)Cn2c(C)c(C(=O)N3CCc4c(cccc4OC)C3)c3cc(Cl)ccc32)C1` [Example 33], the IC50 was more than 100 µM.
The same measure, in the same setting: in the case of `C=CC(=O)N1CC(NC(=O)Cn2c(C)c(C(=O)N3CCc4ccccc4C3(C)C)c3cc(Br)cc(C)c32)C1` [Example 35] it was 55.7 µM; in that of `C=CC(=O)N1CC(N(C)C(=O)Cn2c(C)c(C(=O)N3CCN(c4ccc([N+](=O)[O-])cn4)CC3)c3cc(Br)ccc32)C1` [Example 38], more than 100 µM.
The same measure, in the same setting: then `C=CC(=O)N1CC(NC(=O)Cn2c(C)c(C(=O)N3Cc4ccccc4CC3C)c3cc(Br)cc(C)c32)C1` (centres unmarked) [Example 39], with 60.3 µM; and `C=CC(=O)N1CC(NC(=O)Cn2c(C)c(C(=O)N3CCc4c(cccc4OC)C3)c3cc(Cl)ccc32)C1` [Example 41], with more than 100 µM.
On the same count and under the same terms, in the case of `C=CC(=O)N1CC(NC(=O)Cn2c(C)c(C(=O)N3CCc4c(C)cc(Br)cc4C3)c3cc(Br)ccc32)C1` [Example 51] it was more than 100 µM.

The same experiment, now with this note: Homo sapiens, read-out: pERK IC50 (4 h), 4 h compound treatment.
Turning to `C=CC(=O)N1CC(NC(=O)Cn2c(C)c(-c3cncnc3C3CC3)c3cc(Cl)ccc32)C1` [Example 30], the IC50 is more than 100 µM.
The same measure, in the same setting: in the case of `C=CC(=O)N1CC(NC(=O)Cn2c(C)c(-c3ccccc3CN(C)C)c3cc(Cl)ccc32)C1` [Example 32] it was more than 100 µM.
Still for that read-out and setting: then `C=CC(=O)N1CC(NC(=O)Cn2c(C)c(-c3ccccc3C3CC3)c3cc(Cl)ccc32)C1` [Example 36], with more than 33.3 µM; and `C=CC(=O)N1CC(N(C)C(=O)Cn2cc(I)c3cc(Br)ccc32)C1` [Example 43], with more than 33.3 µM.
Regarding `C=CC(=O)N1CC(NC(=O)Cn2c(C)c(-c3ccccc3N3CCOCC3)c3cc(Cl)ccc32)C1` [Example 49], the IC50 is 7.68 µM.
